Measured values taken from patent US20170360781A1, “PHARMACEUTICAL COMPOSITION COMPRISING BICYCLIC NITROGEN-CONTAINING AROMATIC HETEROCYCLIC AMIDE COMPOUND AS ACTIVE INGREDIENT” (Astellas Pharma Inc., priority 2014, published 2017).

Assays:
[1] = test system: PIK3CA mutation-positive and BRAF mutation-positive RKO cells derived from human colorectal cancer; test: Anti-tumor test 2 on mice tumor-bearing human colorectal cancer-derived RKO cells; assay type: in vivo; conditions: Balb/c nude mice, final measuring day
Protocol: (§1) 4 to 5 week old male Balb/c nude mice (CHARLES RIVER LABORATORIES JAPAN, INC.) were injected and implanted, under the skin on the back, with 3×10^6 PIK3CA mutation-positive and BRAF mutation-positive RKO cells, or 3×10^6 PIK3CA mutation-positive Colo201 cells, both derived from human colorectal cancer suspended to a mixed solution of PBS and Matrigel (registered trademark) in 1:1. Dividing into groups was performed when the tumor volume reached 100 to 250 mm^3, and administering of the test compounds was started. The test was performed on each of the 5 mice in the solvent group and the compound administered group. By oral administration, 6% cyclodextrin aqueous solution for the solvent group, and 6% cyclodextrin aqueous solution in which the test compound was mixed by the dosage shown in Table 4 for the compound administered group were administered. The administration was performed once a day for 11 days (RKO) or 21 days (Colo201), and the body weight and the tumor diameter were measured twice a week. For calculation of the tumor volume, the formula below was used.
(§2) [Tumor volume(mm^3)]=[major axis of tumor(mm)]×[minor axis of tumor(mm)]^2×0.5
(§3) The inhibition rate of tumor growth was calculated from the average value of the tumor volume according to the formula below.
(§4) Inhibition rate of tumor growth(%)=([…]average of tumor volume growth in each group/average of tumor volume growth in solvent group)×100

[2] = test system: PIK3CA mutation-positive Colo201 cells derived from human colorectal cancer; test: Anti-tumor test 2 on mice tumor-bearing human colorectal cancer-derived Colo201 cells; assay type: in vivo; conditions: Colo201, Balb/c nude mice, final measuring day
Protocol: as §1, §2, §3, §4

[3] = test system: Human AML-derived KG-1 cells; test: Anti-tumor test 2 on tumor-bearing mice transplanted with human AML-derived KG-1 cell; assay type: in vivo; conditions: KG-1, Balb/c nude mice, final measuring day
Protocol: 4 to 5 weeks old male Balb/c nude mice (CHARLES RIVER LABORATORIES JAPAN, INC.) were injected and implanted, under the skin on the back, with 3×10^6 KG-1 cells suspended to a mixed solution of PBS and Matrigel (registered trademark) in 1:1. Dividing into groups was performed when tumor volume reached 100 to 200 mm^3, and administering of the test compounds was started. The test was performed on each of the 5 mice in the solvent group and the compound administered group. By oral administration, 6% cyclodextrin aqueous solution for the solvent group, and 6% cyclodextrin aqueous solution in which the test compound was mixed by the dosage shown in Table 6 for the compound administered group were administered. The administration was performed once a day for 21 days, and the body weight and the tumor diameter were measured twice a week. For calculation of the tumor volume, the formula below was used.
as §2
(§5) The inhibition rate of tumor growth and the rate of tumor regression were calculated from the average value of the tumor volume according to the formula below.
(§6) Inhibition rate of tumor growth(%)=(1−average of tumor volume growth in each group/average of tumor volume growth in solvent group)×100
(§7) Rate of tumor regression(%)=(1−average tumor volume in each group on measuring day/average tumor volume in each group when dividing groups)×100

[4] = test system: Human AML-derived MV-4-11 cells; test: Anti-tumor test 2 on tumor-bearing mice transplanted with human AML-derived MV-4-11 cell; assay type: in vivo; conditions: MV-4-11, NOD/SCID mice, 14 days after starting the administration
Protocol: 4 to 5 week old male NOD/SCID nude mice (CHARLES RIVER LABORATORIES JAPAN, INC.) were injected and implanted, under the skin on the back, with 5×10^6 MV-4-11 cells suspended to a mixed solution of PBS and Matrigel (registered trademark) in 1:1. Administering of the test compounds was started when tumor volume reached 100 to 250 mm^3. The test was performed on each of the 5 mice in the solvent group and the compound administered group. By oral administration, 6% cyclodextrin aqueous solution for the solvent group, and 6% cyclodextrin aqueous solution in which the test compound was mixed by the dosage shown in Table 8 for the compound administered group were administered. The administration was performed once a day by oral administration, and the body weight and the tumor diameter were measured twice a week. For calculation of the tumor volume, the formula below was used.
as §2, §5, §6, §7
The anti-tumor effect of Test Compounds A1, B1, C1, and D1 on the final measuring day (14 days after starting the administration) is shown in Table 8.

[5] = test system: DB cells derived from DLBCL; test: Anti-tumor test 2 on mice tumor-bearing DLBCL-derived DB cells; assay type: in vivo; conditions: Balb/c nude mice, final measuring day
Protocol: (§8) 4 to 5 week old male Balb/c nude mice (CHARLES RIVER LABORATORIES JAPAN, INC.) were injected and implanted, under the skin on the back, with 3×10^6 DB cells or SU-DHL-4 cells both derived from DLBCL suspended to a mixed solution of PBS and Matrigel (registered trademark) in 1:1. Dividing into groups was performed when tumor volume reached 100 to 250 mm^3, and administering of the test compounds was started. The test was performed on each of the 5 mice in the solvent group and the compound administered group. By oral administration, 6% cyclodextrin aqueous solution for the solvent group, and 6% cyclodextrin aqueous solution in which the test compound was mixed by the dosage shown in Table 10 for the compound administered group were administered. The administration was performed once a day for 21 days by oral administration, and the body weight and the tumor diameter were measured twice a week. For calculation of the tumor volume, the formula below was used.
(§9) [Tumor volume(mm^3)]=[major axis of tumor(mm)]×[minor axis of tumor (mm)]^2×0.5
as §5, §6, §7

[6] = test system: SU-DHL-4 cells derived from DLBCL; test: Anti-tumor test 2 on mice tumor-bearing DLBCL-derived SU-DHL-4 cells; assay type: in vivo; conditions: SU-DHL-4, Balb/c nude mice, final measuring day
Protocol: as §8, §9, §5, §6, §7

[7] = test system: PIK3CA mutation-positive and BRAF mutation-positive RKO cells derived from human colorectal cancer; test: Anti-tumor test 1 on mice tumor-bearing human colorectal cancer-derived RKO cells; assay type: in vivo; conditions: Balb/c nude mice, 8 mg/kg oral once a day for 10 days, final measuring day
Protocol: (§10) 5 to 6 week old male Balb/c nude mice (CHARLES RIVER LABORATORIES JAPAN, INC.) were injected and implanted, under the skin on the back, with 1.5×10^6 PIK3CA mutation-positive and BRAF mutation-positive RKO cells, or 3×10^6 PIK3CA mutation-positive Colo201 cells, both derived from human colorectal cancer suspended to a PBS solution or a mixed solution of PBS and Matrigel (registered trademark) in 1:1. Dividing into groups was performed when the tumor volume reached 100 to 300 mm^3, and administering of the test compounds was started. The test was performed on each of the 5 mice in a solvent group and a compound administered group. By oral administration, 6% cyclodextrin aqueous solution for the solvent group, and 6% cyclodextrin aqueous solution in which the test compound was mixed by 8 mg/kg for the compound administered group were administered. The administration was performed once a day for 10 days (RKO) or 14 days (Colo201), and the body weight and the tumor diameter were measured twice a week. For calculation of the tumor volume, the formula below was used.
as §2
(§11) The inhibition rate of tumor growth was calculated from the average value of the tumor volume according to the formula below. […]

[8] = test system: PIK3CA mutation-positive Colo201 cells derived from human colorectal cancer; test: Anti-tumor test 1 on mice tumor-bearing human colorectal cancer-derived Colo201 cells; assay type: in vivo; conditions: Colo201, Balb/c nude mice, 8 mg/kg oral once a day for 14 days, final measuring day
Protocol: as §10, §2, §11

[9] = test system: Human AML-derived KG-1 cells; test: Anti-tumor test 1 on tumor-bearing mice transplanted with human AML-derived KG-1 cell; assay type: in vivo; conditions: KG-1, Balb/c nude mice, final measuring day
Protocol: 4 week old male Balb/c nude mice (CHARLES RIVER LABORATORIES JAPAN, INC.) were injected and implanted, under the skin on the back, with 3×10^6 KG-1 cells, suspended to a mixed solution of PBS and Matrigel (registered trademark) in 1:1. After 16 days of implantation, administering of the test compounds was started. The test was performed on each of the 5 mice in the solvent group (6% cyclodextrin aqueous solution) and the test compound administered group (Test Compound Al was mixed to the solvent group by a dosage of 2, 4, or 8 mg/kg). The administration was performed once a day for 14 days by oral administration, and the body weight and the tumor diameter were measured twice a week. For calculation of the tumor volume, the formula below was used.
as §2, §5, §6, §7

[10] = test system: Human AML-derived MV-4-11 cells; test: Anti-tumor test 1 on tumor-bearing mice transplanted with human AML-derived MV-4-11 cell; assay type: in vivo; conditions: MV-4-11, NOD/SCID mice, 8 mg/kg oral once a day for 19 days, final measuring day
Protocol: 4 to 5 week old male NOD/SCID nude mice (CHARLES RIVER LABORATORIES JAPAN, INC.) were injected and implanted, under the skin on the back, with 5×10^6 MV-4-11 cells suspended to a mixed solution of PBS and Matrigel (registered trademark) in 1:1. After 7 days of implantation, administering of the test compounds was started. […] The administration was performed once a day for 19 days by oral administration, and the body weight and the tumor diameter were measured twice a week. For calculation of the tumor volume, the formula below was used.
as §2, §3, §6

[11] = test system: DB cells derived from DLBCL; test: Anti-tumor test 1 on mice tumor-bearing DLBCL-derived DB cells; assay type: in vivo; conditions: Balb/c nude mice, 8 mg/kg oral once a day for 16 days, final measuring day
Protocol: (§12) 4 to 5 week old male Balb/c nude mice (CHARLES RIVER LABORATORIES JAPAN, INC.) were injected and implanted, under the skin on the back, with 3×10^6 DB cells or WSU-DLCL-2 cells both derived from DLBCL suspended to a mixed solution of PBS and Matrigel (registered trademark) in 1:1. Dividing into groups was performed when the average tumor volume reached 400 to 500 mm^3, and administering of the test compounds was started. […] The administration was performed once a day for 16 days (DB) or 17 days (WSU-DLCL-2) by oral administration, and the body weight and the tumor diameter were measured twice a week. For calculation of the tumor volume, the formula below was used.
as §9
(§13) The rate of tumor regression was calculated from the average value of the tumor volume according to the formula below.
as §7

[12] = test system: WSU-DLCL-2 cells derived from DLBCL; test: Anti-tumor test 1 on mice tumor-bearing DLBCL-derived WSU-DLCL-2 cells; assay type: in vivo; conditions: WSU-DLCL-2, Balb/c nude mice, 8 mg/kg oral once a day for 17 days, final measuring day
Protocol: as §12, §9, §13, §7

[13] = biological target: Human Mitochondrial Complex I (Homo sapiens, UniProt O75251+O75306+P03886); test: Evaluation on effect of inhibiting human mitochondrial Complex I (mitochondria from MDA-MB-453 tumor); assay type: biochemical; conditions: mitochondria extracted from MDA-MB-453 tumor; concentration in terms of freebase
Protocol: A solution of 9 times the tumor weight for extraction of mitochondria (0.275 M Sucrose, 2.2 mM EDTA, 11 mM Tris/HCl, pH 7.5, Complete-EDTA-free (Roche Diagnostics)) was added thereto, and then the tumor was crushed. The centrifugation was performed at 600×g for 10 minutes at 4° C., the supernatant was obtained, and then the centrifugation was performed at 14,000×g for 10 minutes at 4° C., and therefore pellets were obtained. The pellets were suspended in 10 mM Tris/HCl pH 7.5 of 5 times the weight of the extracted tumor, and therefore a suspension of human mitochondria was obtained.
Next, 25 or 50 μl of the suspension of human mitochondria was added per 1 ml of a liquid for measuring Complex I activity (25 mM potassium phosphate, pH 7.6, 0.35% Bovine Serum Albumin (BSA), 60 μM 2,6-dichlorophenol-indophenol, 70 μM decylubiquinone, 1 μM antimycin). After the solution was collected and added to a 96 or 384 well plate, a test compound was added to an arbitrary range from the final concentration of 10,000 nM to the final concentration of 0.3 nM. […] Furthermore, NADH was added to each well to the final concentration of 0.2 or 0.5 mM, and the change in absorbance at a wavelength of 600 nm was measured by using the SpectraMax (Molecular Devices, LLC.) set to 37° C. in advance. […]

[14] = 1 mg/kg oral once a day for 11 days
[15] = 1 mg/kg oral once a day for 21 days
[16] = 8 mg/kg oral once a day for 11 days
[17] = 8 mg/kg oral once a day for 21 days

Compound: CCOc1cnc(CN2CCC(c3ccc4cc(C(=O)N5CCN(Cc6ccc(C#N)cc6)CC5)n(C)c4c3)CC2)cn1 [Compound C1, 4-({4-[(6-{1-[(5-ethoxypyrazin-2-yl)methyl]piperidin-4-yl}-1-methyl-1H-indol-2-yl)carbonyl]piperazin-1-yl}methyl)benzonitrile]
- Inhibition rate RKO [1, 14]: 58%
- Inhibition rate Colo201 [2, 15]: 54%
- Rate of tumor regression [3, 15]: 29% regression
- Rate of tumor regression ([4]; 1 mg/kg oral once a day): 77% regression
- Regression rate DB [5, 15]: 69% regression
- Inhibition rate SU-DHL-4 [6, 15]: 100%

Compound: COc1cnc(CN2CCC(c3ccc4[nH]c(C(=O)N5CCN(Cc6ccc(C(F)(F)F)cc6)CC5)nc4c3)CC2)cn1 [Compound B1, (5-{1-[(5-methoxypyrazin-2-yl)methyl]piperidin-4-yl}-1H-benzimidazol-2-yl){4-[4-(trifluoromethyl)benzyl]piperazin-1-yl}methanone]
- Inhibition rate RKO [1, 16]: 55%
- Inhibition rate Colo201 [2, 17]: 52%
- Rate of tumor regression [3, 17]: 31% regression
- Rate of tumor regression ([4]; 8 mg/kg oral once a day): 76% regression
- Regression rate DB [5, 17]: 92% regression
- Inhibition rate SU-DHL-4 [6, 17]: 87%

Compound: COc1ccc(CN2CCC(c3ccc4[nH]c(C(=O)N5CCN(Cc6ccc(C(F)(F)F)cc6)CC5)nc4c3)CC2)cn1 [Compound A1, (5-{1-[(6-methoxypyridin-3-yl)methyl]piperidin-4-yl}-1H-benzimidazol-2-yl){4-[4-(trifluoromethyl)benzyl]piperazin-1-yl}methanone]
- Inhibition rate of tumor growth [7]: 67%
- Inhibition rate of tumor growth [8]: 60%
- Inhibition rate RKO [1, 16]: 48%
- Inhibition rate Colo201 [2, 17]: 53%
- Inhibition rate of tumor growth ([9]; 2 mg/kg oral once a day for 14 days): 54% inhibition
- Inhibition rate of tumor growth ([9]; 4 mg/kg oral once a day for 14 days): 70% inhibition
- Rate of tumor regression ([9]; 8 mg/kg oral once a day for 14 days): 8% regression
- Inhibition rate of tumor growth [3, 17]: 99% inhibition
- Inhibition rate of tumor growth [10]: 96%
- Rate of tumor regression ([4]; 8 mg/kg oral once a day): 70% regression
- Regression rate [11]: 67%
- Regression rate [12]: 72%
- Regression rate DB [5, 17]: 66% regression
- Inhibition rate SU-DHL-4 [6, 17]: 64%

Compound: COc1cnc(CN2CCC(c3ccc4c(c3)cc(C(=O)N3CCN(Cc5ccc(C#N)cc5)CC3)n4C)CC2)cn1 [Compound D1, 4-({4-[(5-{1-[(5-methoxypyrazin-2-yl)methyl]piperidin-4-yl}-1-methyl-1H-indol-2-yl)carbonyl]piperazin-1-yl}methyl)benzonitrile]
- IC50 [13]: 120 nM
- Inhibition rate RKO [1, 14]: 13%
- Inhibition rate Colo201 [2, 15]: 45%
- Inhibition rate of tumor growth [3, 15]: 95% inhibition
- Inhibition rate of tumor growth ([4]; 1 mg/kg oral once a day): 90% inhibition
- Inhibition rate DB [5, 15]: 96% inhibition
- Inhibition rate SU-DHL-4 [6, 15]: 40%
